Experimental data published in patent US20190210969A1, “INTRAESOPHAGEAL ADMINISTRATION OF TARGETED NITROXIDE AGENTS FOR PROTECTION AGAINST IONIZING IRRADIATION-INDUCED ESOPHAGITIS” (University of Pittsburgh - Of the Commonwealth System of …, priority 2010, published 2019).

Legend:
[1] = system: 32D cl 3 mouse hematopoietic progenitor cell line; assay: Irradiation survival curves of 32D cl 3 cells (colony assay); assay type: cell-based; settings: for ñ (shoulder on the survival curve): 0 to 8 Gy
Protocol: Groups of 15 mice received intraperitoneal injection of 10 mg. per kilogram of each indicated GS-nitroxide compound or carrier (Cremphora plus alcohol at 1 to 1 ratio, then diluted 1 to 10 in distilled water). Mice received 10 mg per kilogram intra-peritoneal injection 24 hours prior to total body irradiation. Control mice received radiation alone. […] (P=0.0005) FIG. 6 is a graph showing that GS-nitroxide JP4-039 is an effective hematopoietic cell radiation mitigator when delivered 24 hr after irradiation. Irradiation survival curves were performed on cells from the 32D cl 3 mouse hematopoietic progenitor cell line, incubated in 10 μM JP4-039 for 1 hour before irradiation, or plated in methylcellulose containing 10 μM […] after irradiation. Cells were irradiated from 0 to 8 Gy, plated in 0.8% methylcellulose containing media, and incubated for 7 days at 37° C. Colonies of greater than 50 cells were counted and data analyzed by linear quadratic and single-hit, multi-target models.

[2] = Uptake of swallowed JP4-039 in esophageal SP cells incl. GFP+ marrow chimeric mice; assay type: in vivo, mouse
[3] = system: mice, 29 Gy upper body irradiation plus GFP+ male marrow; assay: Survival after 29 Gy upper body irradiation with GFP+ marrow injection on day 5; assay type: in vivo, mouse; settings: given before 29 Gy; GFP+ marrow i.v. day 5; p=0.0315 (MnSOD-PL), p=0.0462 (JP4-039/F15)
Text: Bone marrow transplantation, esophageal excision and cell sorting. Five days after irradiation, the time shown to optimize marrow cell homing to the irradiated esophagus, mice received intravenous injection of 1.0×10^7 C57BL/6HNsd GFP+ male bone marrow cells prepared as single-cell suspension from donor male mice according to published methods (Niu Y, et al. Irradiated esophageal cells are protected from radiation-induced recombination by MnSOD gene therapy. Rad Res 173: 453-461, 2010 and Niu Y, et al. Intraesophageal MnSOD-plasmid liposome administration enhances engraftment and self-renewal capacity of bone marrow derived progenitors of esophageal squamous epithelium. Gene Therapy 15: 347-356, 2008). At serial time points after marrow transplantation, esophagus specimens were removed, and single cell suspensions prepared according to published methods (Id.). The esophagus cell suspensions were sorted for GFP+ cells. The number of GFP+ cells per 10^6 was calculated as described previously (Id.). (GFP+) cells were placed on slides, and stained for detection of donor cell markers (Id.).
Intraesophageal JP4-039/formulation improves survival through recovery of endogenous esophageal progenitor cells. […] Five groups of 15 mice each received 29 Gy to the upper body. One group received MnSOD-PL 24 hours prior to irradiation.

[4] = system: C57BL/6NHsd mice, upper body irradiation; assay: Survival after upper body (thoracic) irradiation, irradiation-induced esophagitis; assay type: in vivo, mouse; settings: for protection (survival): 4 μg JP4-039 in 110 μl F15 10 minutes before, MnSOD-PL 24 hours prior, preliminary data
Text: Animals and animal care. C57BL/6HNsd female and C57BL/6JHNsd-GFP male mice (22-22 gm) were housed, five per cage and fed standard laboratory chow according to previous publications (3). C57BL/6NHsd mice (15 per group) were irradiated (details are given in the next section) and received swallowed JP4-039 or MnSOD-PL pre- or post-radiation. The mice were monitored for development of esophagitis.
Irradiation. Mice were irradiated to 28 or 29 Gy to the upper body using a JL Shepherd Mark I cesium irradiator (J.L. Shepherd and Associates, San Fernando, Ca, USA) ([…]), according to published methods (Epperly M W, et al. Zhang X, Nie S, Cao S, Kagan V, Tyurin V and Greenberger J S: MnSOD-plasmid liposome gene therapy effects on ionizing irradiation induced lipid peroxidation of the esophagus. In Vivo 19: 997-1004, 2005). The head and abdomen were shielded, as described previously (Stickle R L, et al. Prevention of irradiation-induced esophagitis by plasmid/liposome delivery of the human manganese superoxide dismutase (MnSOD) transgene. Radiat Oncol Invest Clinical & Basic Res 7: 204-217, 1999), so that only the thoracic cavity received irradiation.
Intraesophageal drug administration. The methods for preparation of MnSOD-plasmid liposomes using PNVL3 lipid have been published previously (Epperly M W, et al. Modulation of radiation-induced cytokine elevation associated with esophagitis and esophageal stricture by manganese superoxide dismutase-plasmid/liposome (MnSOD-PL) gene therapy. Radiat Res 155: 2-14, 2001). Briefly, 100 μl liposomes containing […] plasmid were injected by syringe intraesophageally into non-anesthetized mice immediately after they received 100 μl distilled water.
The stock solutions described above were diluted, so that the total amount of JP4-039 administered to each animal was 400 μg. Mice were immobilized for irradiation with intraperitoneal Nembutal anesthesia after administration of JP4-039 as described above. Mice were exposed to single-dose (29 Gy) or fractionated radiation (11.5 Gy per day for four days) to the upper body.

[5] = JP4-039 content of sorted esophageal SP and NSP cells (EPR); assay type: in vivo, mouse; settings: 20 esophagi excised 10 minutes after intraesophageal delivery
Protocol: Ten minutes after administration of JP4-039, esophagi were removed, minced, and incubated in a solution of 0.2% Collagenase type II, 0.3% Dispase and 0.025% Trypsin for 45 minutes at 37 degrees Celsius. Cell aggregates were then passed through sequentially smaller needles (to 23-gauge) and filtered with a […] cell strainer into DMEM supplemented with 40% fetal bovine serum. Suspensions were pelleted via centrifugation and resuspended at 10^6 cells/ml in pre-warmed DMEM (2% FBS, 10 mM HEPES). Cells were incubated in 6 μg/ml Hoechst 33342 for 90 minutes to identify SP cells. Verapamil, which inhibits the efflux of Hoechst, was used as a concentration of 50 μM for the purpose of cell gating. Cells were pelleted and resuspended in cold Hank's Balanced Salt Solution (HBSS) (2% FBS, 10 mM HEPES) and incubated with anti-CD45-phycoerythrin (PE)-fluorescein isothiocyanate (FITC) and/or anti-Ter119-PE-Cy7 antibodies at 1:200 dilutions, to discriminate hematopoietic cells. Antibody-treated cells were incubated on ice for 20 minutes, washed in cold HBSS, filtered, pelleted, and resuspended in cold HBSS. […] SP and NSP cells were quantified, sorted into separate collection tubes containing cold HBSS (2% FBS, 10 mM HEPES) and pelleted. […] JP4-039 content in sorted SP and NSP cells was quantified by electron paramagnetic resonance (EPR) analysis using a JEOL-RE1XEPR spectrometer. […]

Compound: CC(C)C[C@@H](/C=C/CC(=O)NC1CC(C)(C)N([O])C(C)(C)C1)NC(=O)OC(C)(C)C [JP4-039, TEMPO-4-yl-(S,E)-5-(tert-butoxycarbonylamino)-7-methyloct-3-enamide]
- ñ (shoulder on the survival curve) ([1]; 10 μM for 1 hour before irradiation, cells alone 1.29±0.13, p=0.0109): 5.25±0.84
- survival of 32D c13 cells ([1]; 10 μM for one hour, 0-8 Gy irradiation, preliminary data): increased survival
- ñ (shoulder on the survival curve) ([1]; 10 μM in methylcellulose after irradiation, cells alone 1.29±0.13, p=0.0022): 4.55±0.47
- uptake in GFP+ esophageal (SP) stem cells ([2]; GFP+ marrow chimeric mice): reaches GFP+ esophageal (SP) stem cells
- uptake in esophageal SP cells ([2]; preliminary data): reaches SP cells
- survival [3]: improved survival
- survival ([4]; 400 μg in F15 immediately prior to single fraction 29 Gy thoracic irradiation, vs F15 vehicle only, p=0.0384): increased survival
- protection (survival) ([4]; 29 Gy upper body irradiation, vs F15 or radiation alone): protective
- protection (survival) ([4]; four daily sessions of 12 Gy, p=0.0430): protective
- survival ([4]; prior to each of four fractions of 11.5 Gy thoracic irradiation, vs F15 only, p=0.0388): increased survival
- JP4-039 content of sorted SP cell pellet ([5]; 101,00 SP cells): 275.1 fmol
- JP4-039 content of sorted NSP cells ([5]; 3,387,00 NSP cells): 221.3 fmol
